Experimental data from US20240293558A1, “KRAS INHIBITOR CONJUGATES” (Erasca, Inc., priority 2021, published 2024).
Read-outs that look alike come from different tables or passages of the source.

Key:
KRAS G12D = KRAS G12D (Homo sapiens, UniProt P01116, G12D); test: In-vitro RAS-RAF binding assay (RRB), HTRF/FRET; type: biochemical; set-up: Biotinylated KRAS protein amino acids 1-169 (produced at Erasca); made in house; details: Table 2, average of multiple runs of each compound
Method: (§1) Biotinylated KRAS protein amino acids 1-169 (produced at […]) is labeled with streptavidin-terbium (lanthanide cryptate donor fluorophore) in assay buffer (50 mM HEPES, pH 7.5, 100 mM NaCl, 1 mM MgCl2, 1 mM DTT) at a final concentration of 30 nM. In a separate reaction mixture, 30 nM cRAF (RBD) (Abcam, Cambridge MA) is labeled with anti-GST d2 (acceptor fluorophore). Labeling reactions are incubated for 1 hour at room temperature. […] Following the compound incubation, SOS1 catalytic domain (produced at […]) and GTPgS are added to the reaction to initiate nucleotide exchange (60 minutes exchange reaction). Once in the GTP state KRAS will bind to cRAF. No binding will occur if KRAS remains in the GDP state. Compounds may block nucleotide exchange or may create a steric obstruction to cRAF-KRAS interaction by binding to the RAS effector site. […] A portion of this mixture is transferred to a white 384-well plate (20 uL per well in duplicate) and read on an HTRF compatible plate reader (ClarioSTAR). Fluorescent resonance energy transfer (FRET) is measured at equilibrium. FRET signal will be high if KRAS-cRAF binding occurs. FRET signal will be low if KRAS-cRAF binding is inhibited by the test compound. Table 2 represents the average of multiple runs of each compound.

KRAS (WT) = biological target: T1, KRAS (WT) (Homo sapiens, UniProt P01116); test: In-vitro RAS-RAF binding assay (RRB), HTRF/FRET; type: biochemical; details: Table 2, average of multiple runs of each compound
T1 construct: Biotinylated KRAS protein amino acids 1-169 (produced at Erasca); made in house
T1 sequence (P01116 1-169 isoform P01116-2): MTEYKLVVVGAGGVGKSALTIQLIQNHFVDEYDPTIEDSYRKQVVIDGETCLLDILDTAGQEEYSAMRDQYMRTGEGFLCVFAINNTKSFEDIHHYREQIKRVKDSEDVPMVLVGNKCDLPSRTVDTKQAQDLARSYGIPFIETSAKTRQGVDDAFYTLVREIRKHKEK
Method: as §1

[1] = read-out: Inhibition of RAS-RAF Binding (in-vitro) KRAS (G12D) IC50
[2] = read-out: Inhibition of RAS-RAF Binding (in-vitro) KRAS (WT) IC50

KRAS G12D, sequence (P01116 1-169 isoform P01116-2 G12D): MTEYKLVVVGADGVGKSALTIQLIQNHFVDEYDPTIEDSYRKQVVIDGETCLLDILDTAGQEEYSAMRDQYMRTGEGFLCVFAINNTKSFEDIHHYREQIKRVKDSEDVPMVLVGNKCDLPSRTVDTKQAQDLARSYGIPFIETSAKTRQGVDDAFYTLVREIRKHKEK

IC50 (KRAS G12D; [1]) [nM]	IC50 (KRAS (WT); [2]) [nM]	SMILES	IC50 (KRAS G12D; Inhibition of RAS-RAF Binding (in-vitro) KRAS (G12D) IC50 (nM)) [nM]	IC50 (KRAS (WT); Inhibition of RAS-RAF Binding (in-vitro) KRAS (WT) IC50 (nM)) [nM]
9.4	53.4	C#Cc1c(F)ccc2cc(O)cc(-c3ncc4c(N5CC6CCC(C5)N6)nc(OC[C@@H]5CCCN5CCCOCCC(=O)N[C@H](C(=O)N5C[C@H](O)C[C@H]5C(=O)N[C@@H](C)c5ccc(-c6c(C)cccc6C)cc5)C(C)(C)C)nc4c3F)c12 [Example 41, (2S,4R)-1-((2S)-2-(3-(3-((2S)-2-(((4-(3,8-diazabicyclo[3.2.1]octan-3-yl)-7-(8-ethynyl-7-fluoro-3-hydroxynaphthalen-1-yl)-8-fluoropyrido[4,3-d]pyrimidin-2-yl)oxy)methyl)pyrrolidin-1-yl)propoxy)propanamido)-3,3-dimethylbutanoyl)-N-((S)-1-(2′,6′-dimethyl-[1,1′-biphenyl]-4-yl)ethyl)-4-hydroxypyrrolidine-2-carboxamide]	–	–
7.78	24.9	C#Cc1c(F)ccc2cc(O)cc(-c3ncc4c(N5CC6CCC(C5)N6)nc(OC[C@@H]5CCCN5CCCOCCC(=O)N[C@H](C(=O)N5C[C@H](O)C[C@H]5C(=O)N[C@@H](C)c5ccc(-c6c(F)cccc6Cl)cc5)C(C)(C)C)nc4c3F)c12 [Example 42, (2S,4R)-1-((2S)-2-(3-(3-((2S)-2-(((4-(3,8-diazabicyclo[3.2.1]octan-3-yl)-7-(8-ethynyl-7-fluoro-3-hydroxynaphthalen-1-yl)-8-fluoropyrido[4,3-d]pyrimidin-2-yl)oxy)methyl)pyrrolidin-1-yl)propoxy)propanamido)-3,3-dimethylbutanoyl)-N-((S)-1-(2′-chloro-6′-fluoro-[1,1′-biphenyl]-4-yl)ethyl)-4-hydroxypyrrolidine-2-carboxamide]	–	–
7.68	38.3	C#Cc1c(F)ccc2cc(O)cc(-c3ncc4c(N5CC6CCC(C5)N6)nc(OC[C@@H]5CCCN5CCCOCCC(=O)N[C@H](C(=O)N5C[C@H](O)C[C@H]5C(=O)N[C@@H](C)c5ccc(-c6c(F)cccc6C(F)(F)F)cc5)C(C)(C)C)nc4c3F)c12 [Example 43, (2S,4R)-1-((2S)-2-(3-(3-((2S)-2-(((4-(3,8-diazabicyclo[3.2.1]octan-3-yl)-7-(8-ethynyl-7-fluoro-3-hydroxynaphthalen-1-yl)-8-fluoropyrido[4,3-d]pyrimidin-2-yl)oxy)methyl)pyrrolidin-1-yl)propoxy)propanamido)-3,3-dimethylbutanoyl)-N-((S)-1-(2′-fluoro-6′-(trifluoromethyl)-[1,1′-biphenyl]-4-yl)ethyl)-4-hydroxypyrrolidine-2-carboxamide]	–	–
8.92	34.3	C#Cc1c(F)ccc2cc(O)cc(-c3ncc4c(N5CC6CCC(C5)N6)nc(OC[C@@H]5CCCN5CCCOCCC(=O)N[C@H](C(=O)N5C[C@H](O)C[C@H]5C(=O)N[C@@H](C)c5ccc(-c6c(F)ccc(F)c6F)cc5)C(C)(C)C)nc4c3F)c12 [Example 44, (2S,4R)-1-((2S)-2-(3-(3-((2S)-2-(((4-(3,8-diazabicyclo[3.2.1]octan-3-yl)-7-(8-ethynyl-7-fluoro-3-hydroxynaphthalen-1-yl)-8-fluoropyrido[4,3-d]pyrimidin-2-yl)oxy)methyl)pyrrolidin-1-yl)propoxy)propanamido)-3,3-dimethylbutanoyl)-4-hydroxy-N-((S)-1-(2′,3′,6′-trifluoro-[1,1′-biphenyl]-4-yl)ethyl)pyrrolidine-2-carboxamide]	–	–
8.97	44.9	C#Cc1c(F)ccc2cc(O)cc(-c3ncc4c(N5CC6CCC(C5)N6)nc(OC[C@@H]5CCCN5CCCOCCC(=O)N[C@H](C(=O)N5C[C@H](O)C[C@H]5C(=O)N[C@@H](C)c5ccc(-c6c(Cl)cccc6Cl)cc5)C(C)(C)C)nc4c3F)c12 [Example 45]	–	–
–	–	C#Cc1c(F)ccc2cc(O)cc(-c3ncc4c(N5CC6CCC(C5)N6)nc(OC[C@@H]5CCCN5CCCOCCC(=O)N[C@H](C(=O)N5C[C@H](O)C[C@H]5C(=O)N[C@@H](C)c5ccc(N6CCC[C@H]6C(N)=O)cc5)C(C)(C)C)nc4c3F)c12 [Example 46, (2S,4R)-1-((2S)-2-(3-(3-((2S)-2-(((4-(3,8-diazabicyclo[3.2.1]octan-3-yl)-7-(8-ethynyl-7-fluoro-3-hydroxynaphthalen-1-yl)-8-fluoropyrido[4,3-d]pyrimidin-2-yl)oxy)methyl)pyrrolidin-1-yl)propoxy)propanamido)-3,3-dimethylbutanoyl)-N-((S)-1-(4-((S)-2-carbamoylpyrrolidin-1-yl)phenyl)ethyl)-4-hydroxypyrrolidine-2-carboxamide]	5.87	21.4
7.67	22.2	C#Cc1c(F)ccc2cc(O)cc(-c3ncc4c(N5CC6CCC(C5)N6)nc(OC[C@@H]5CCCN5CCCOCCC(=O)N[C@H](C(=O)N5C[C@H](O)C[C@H]5C(=O)N[C@@H](C)c5ccc(-c6c(C)ccnc6C)cc5)C(C)(C)C)nc4c3F)c12 [Example 47, (2S,4R)-1-((2S)-2-(3-(3-((2S)-2-(((4-(3,8-diazabicyclo[3.2.1]octan-3-yl)-7-(8-ethynyl-7-fluoro-3-hydroxynaphthalen-1-yl)-8-fluoropyrido[4,3-d]pyrimidin-2-yl)oxy)methyl)pyrrolidin-1-yl)propoxy)propanamido)-3,3-dimethylbutanoyl)-N-((S)-1-(4-(2,4-dimethylpyridin-3-yl)phenyl)ethyl)-4-hydroxypyrrolidine-2-carboxamide]	–	–
7.53	24.7	C#Cc1c(F)ccc2cc(O)cc(-c3ncc4c(N5CC6CCC(C5)N6)nc(OC[C@@H]5CCCN5CCCOCCC(=O)N[C@H](C(=O)N5C[C@H](O)C[C@H]5C(=O)N[C@@H](C)c5ccc(-c6cccnc6C(F)(F)F)cc5)C(C)(C)C)nc4c3F)c12 [Example 48, (2S,4R)-1-((2S)-2-(3-(3-((2S)-2-(((4-(3,8-diazabicyclo[3.2.1]octan-3-yl)-7-(8-ethynyl-7-fluoro-3-hydroxynaphthalen-1-yl)-8-fluoropyrido[4,3-d]pyrimidin-2-yl)oxy)methyl)pyrrolidin-1-yl)propoxy)propanamido)-3,3-dimethylbutanoyl)-4-hydroxy-N-((S)-1-(4-(2-(trifluoromethyl)pyridin-3-yl)phenyl)ethyl)pyrrolidine-2-carboxamide]	–	–
10.2	98.9	C#Cc1c(F)ccc2cc(O)cc(-c3ncc4c(N5CC6CCC(C5)N6)nc(OC[C@@H]5CCCN5CCCOCCC(=O)O[C@H](C(=O)N5C[C@H](O)C[C@H]5C(=O)N[C@@H](C)c5ccc(-c6c(C)cccc6C(F)(F)F)cc5)C(C)(C)C)nc4c3F)c12 [Example 50, (S)-1-((2S,4R)-4-hydroxy-2-(((S)-1-(2′-methyl-6′-(trifluoromethyl)-[1,1′-biphenyl]-4-yl)ethyl)carbamoyl)pyrrolidin-1-yl)-3,3-dimethyl-1-oxobutan-2-yl 3-(3-((2S)-2-(((4-(3,8-diazabicyclo[3.2.1]octan-3-yl)-7-(8-ethynyl-7-fluoro-3-hydroxynaphthalen-1-yl)-8-fluoropyrido[4,3-d]pyrimidin-2-yl)oxy)methyl)pyrrolidin-1-yl)propoxy)propanoate]	–	–
9.09	95.7	C#Cc1c(F)ccc2cc(O)cc(-c3ncc4c(N5CC6CCC(C5)N6)nc(OC[C@@H]5CCCN5CCCOCCC(=O)N[C@H](C(=O)N5C[C@H](O)C[C@H]5C(=O)N[C@@H](C)c5ccc(-c6cccc(F)c6F)cc5)C(C)(C)C)nc4c3F)c12 [Example 51, (2S,4R)-1-((2S)-2-(3-(3-((2S)-2-(((4-(3,8-diazabicyclo[3.2.1]octan-3-yl)-7-(8-ethynyl-7-fluoro-3-hydroxynaphthalen-1-yl)-8-fluoropyrido[4,3-d]pyrimidin-2-yl)oxy)methyl)pyrrolidin-1-yl)propoxy)propanamido)-3,3-dimethylbutanoyl)-N-((S)-1-(2′,3′-difluoro-[1,1′-biphenyl]-4-yl)ethyl)-4-hydroxypyrrolidine-2-carboxamide]	–	–
7.84	114	C#Cc1c(F)ccc2cc(O)cc(-c3ncc4c(N5CC6CCC(C5)N6)nc(OC[C@@H]5CCCN5CCCOCCC(=O)N[C@H](C(=O)N5C[C@H](O)C[C@H]5C(=O)N[C@@H](C)c5ccc(-c6cc(F)c(F)c(F)c6)cc5)C(C)(C)C)nc4c3F)c12 [Example 52, (2S,4R)-1-((2S)-2-(3-(3-((2S)-2-(((4-(3,8-diazabicyclo[3.2.1]octan-3-yl)-7-(8-ethynyl-7-fluoro-3-hydroxynaphthalen-1-yl)-8-fluoropyrido[4,3-d]pyrimidin-2-yl)oxy)methyl)pyrrolidin-1-yl)propoxy)propanamido)-3,3-dimethylbutanoyl)-4-hydroxy-N-((S)-1-(3′,4′,5′-trifluoro-[1,1′-biphenyl]-4-yl)ethyl)pyrrolidine-2-carboxamide]	–	–
